Assay results as given in patent publication EP1433789A1, “Pyrrolopyrazines and their use as selective apoptosis inducers” (Aponetics AG, priority 2002, dated 2004).

Tests used:
HeLa [1] = test: Hoechst 33342 nuclear staining (Table 3); format: cell-based, human; set-up: key: 0 relating to no activity; 1 relating to weak activity comprising less than 50% of the cells; score 2 relating to strong activity comprising more than 50% of the cells
Protocol: (§1) This assay is performed in 96 well tissue culture plates. Appropriate number of cells (adherent cells: 3 - 5*10^3, suspension cells: 8 - 10*10^3) are being seeded out in 80 µl complete medium. Adherent cells are incubated for 24 h for proper spreading out before addition of test compounds while suspension cells are immediately treated with test compounds after seeding out. The test compounds are added in 20 µl complete medium containing max 5% DMSO. The final compound concentrations in the assays are 10 µM, 3 µM,1 µM and 0.3 µM, respectively. After 24 h or 48 h incubation at culture conditions, 10 µl medium containing Hoechst 33342 dye (Sigma B-2261) at 2-5 µg/ml are added to each well. The assay plates are then further incubated for 30 minutes and subsequently analyzed with a standard inverted fluorescence microscope. The readout allows the determination of the fraction of apoptotic nuclei as well as other morphological criteria specific for apoptosis as a function of the treatment. The following scores are used: 0 relating to no activity, 1 relating to weak activity comprising less than 50% of the cells and score 2 relating to strong activity comprising more than 50% of the cells.

Ramos [2] = test: Hoechst 33342 nuclear staining (Table 3); format: cell-based, human; set-up: key: 0 relating to no activity; 1 relating to weak activity comprising less than 50% of the cells; score 2 relating to strong activity comprising more than 50% of the cells; details: 24h
Protocol: as §1

K562 = test: Hoechst 33342 nuclear staining (Table 3); format: cell-based, human; set-up: key: 0 relating to no activity; 1 relating to weak activity comprising less than 50% of the cells; score 2 relating to strong activity comprising more than 50% of the cells
Protocol: as §1

Jurkat [3] = test: Hoechst 33342 nuclear staining (Table 3); format: cell-based, human; set-up: key: 0 relating to no activity; 1 relating to weak activity comprising less than 50% of the cells; score 2 relating to strong activity comprising more than 50% of the cells
Protocol: as §1

A20 [4] = test: Hoechst 33342 nuclear staining (Table 3); format: cell-based, mouse; set-up: key: 0 relating to no activity; 1 relating to weak activity comprising less than 50% of the cells; score 2 relating to strong activity comprising more than 50% of the cells
Protocol: as §1

HeLa [5] = test: AnnexinV/7-AAD staining; format: cell-based, human; details: 10 µM, 24 h treatment
Protocol: (§2) Adherent cells (1 - 2*10^5) are 24 h prior to compound treatment seeded into 24 well tissue culture plates. Suspension cells are pipetted into P-tubes immediately before treatment. Test compounds are added leading to a final concentrations of 10 µM. After 24 h treatment cells are harvested (in case of adherent cells by trypsinization) and transferred to FACS tubes (BD Biosciences). After centrifugation and removal of the supernatant, 100 µl complete medium containing AnnexinV-GST (10 µg) is added, mixed and incubated at 4°C for 30 minutes. Subsequently, the cells are washed once with medium and incubated with 100 µl anti-GST Alexa 488 (Molecular Probes A-11131) in medium diluted 1:500 for 30 minutes at 4°C. Then, cells are washed once and stained with 1 µg/ml 7-aminoactinomycin D (7-AAD) (Molecular Probes A-1310) in 250 µl medium and analyzed on the FACSCalibur™. AnnexinV is measured in FL1 whereas 7-AAD is measured in FL3. In Table 5 the percentage of positively stained cells after treatment with the respective compounds are indicated. The following scores are used: Score 0 relates to less than 10%, score 1 relates to more than 10% but less than 50% and score 2 relates to more than 50% positivity.

Ramos [6] = test: AnnexinV/7-AAD staining; format: cell-based, human; details: 10 µM, 24 h treatment
Protocol: as §2

Jurkat [7] = test: AnnexinV/7-AAD staining; format: cell-based, human; details: 10 µM, 24 h treatment
Protocol: as §2

A20 [8] = test: AnnexinV/7-AAD staining; format: cell-based, mouse; details: A20, 10 µM, 24 h treatment
Protocol: as §2

Compound: CC1(C)Cc2ccccc2-c2c(C=O)c3nc4ccccc4nc3n21 [No. 3, 6,6-Dimethyl-5,6-dihydro-6a,7,12-triaza-dibenzo[a,h]fluorene-13-carbaldehyde]
- Hoechst 33342 nuclear staining (HeLa [1]; 24h, conc 0.3 (µM)): 0
- Hoechst 33342 nuclear staining (HeLa [1]; 24h, conc 1 (µM)): 0
- Hoechst 33342 nuclear staining (HeLa [1]; 24h, conc 3 (µM)): 0
- Hoechst 33342 nuclear staining (HeLa [1]; 24h, conc 10 (µM)): 0
- Hoechst 33342 nuclear staining (HeLa [1]; 48h, conc 0.3 (µM)): 0
- Hoechst 33342 nuclear staining (HeLa [1]; 48h, conc 1 (µM)): 0
- Hoechst 33342 nuclear staining (HeLa [1]; 48h, conc 3 (µM)): 0
- Hoechst 33342 nuclear staining (HeLa [1]; 48h, conc 10 (µM)): 1 (1 relating to weak activity comprising less than 50% of the cells)
- Hoechst 33342 nuclear staining (Ramos [2]; conc 0.3 (µM)): 0
- Hoechst 33342 nuclear staining (Ramos [2]; conc 1 (µM)): 0
- Hoechst 33342 nuclear staining (Ramos [2]; conc 3 (µM)): 0
- Hoechst 33342 nuclear staining (Ramos [2]; conc 10 (µM)): 0
- Hoechst 33342 nuclear staining (K562; K562, 24h, conc 0.3 (µM)): 0
- Hoechst 33342 nuclear staining (K562; K562, 24h, conc 1 (µM)): 0
- Hoechst 33342 nuclear staining (K562; K562, 24h, conc 3 (µM)): 0
- Hoechst 33342 nuclear staining (K562; K562, 24h, conc 10 (µM)): 0
- Hoechst 33342 nuclear staining (K562; K562, 48h, conc 0.3 (µM)): 0
- Hoechst 33342 nuclear staining (K562; K562, 48h, conc 1 (µM)): 0
- Hoechst 33342 nuclear staining (K562; K562, 48h, conc 3 (µM)): 1 (1 relating to weak activity comprising less than 50% of the cells)
- Hoechst 33342 nuclear staining (K562; K562, 48h, conc 10 (µM)): 1 (1 relating to weak activity comprising less than 50% of the cells)
- Hoechst 33342 nuclear staining (Jurkat [3]; 24h, conc 0.3 (µM)): 0
- Hoechst 33342 nuclear staining (Jurkat [3]; 24h, conc 1 (µM)): 0
- Hoechst 33342 nuclear staining (Jurkat [3]; 24h, conc 3 (µM)): 0
- Hoechst 33342 nuclear staining (Jurkat [3]; 24h, conc 10 (µM)): 0
- Hoechst 33342 nuclear staining (Jurkat [3]; 48h, conc 0.3 (µM)): 0
- Hoechst 33342 nuclear staining (Jurkat [3]; 48h, conc 1 (µM)): 0
- Hoechst 33342 nuclear staining (Jurkat [3]; 48h, conc 3 (µM)): 0
- Hoechst 33342 nuclear staining (Jurkat [3]; 48h, conc 10 (µM)): 2 (score 2 relating to strong activity comprising more than 50% of the cells)
- Hoechst 33342 nuclear staining (A20 [4]; A20, 24h, conc 0.3 (µM)): 0
- Hoechst 33342 nuclear staining (A20 [4]; A20, 24h, conc 1 (µM)): 0
- Hoechst 33342 nuclear staining (A20 [4]; A20, 24h, conc 3 (µM)): 0
- Hoechst 33342 nuclear staining (A20 [4]; A20, 24h, conc 10 (µM)): 0
- Hoechst 33342 nuclear staining (A20 [4]; A20, 48h, conc 0.3 (µM)): 0
- Hoechst 33342 nuclear staining (A20 [4]; A20, 48h, conc 1 (µM)): 0
- Hoechst 33342 nuclear staining (A20 [4]; A20, 48h, conc 3 (µM)): 0
- Hoechst 33342 nuclear staining (A20 [4]; A20, 48h, conc 10 (µM)): 0
- percentage of positively stained cells (AnnexinV/7-AAD staining) (HeLa [5]): 1 (score 1 relates to more than 10% but less than 50%)
- percentage of positively stained cells (AnnexinV/7-AAD staining) (Ramos [6]): 2 (score 2 relates to more than 50% positivity)
- percentage of positively stained cells (AnnexinV/7-AAD staining) (Jurkat [7]): 2 (score 2 relates to more than 50% positivity)
- percentage of positively stained cells (AnnexinV/7-AAD staining) (A20 [8]): 1 (score 1 relates to more than 10% but less than 50%)
